A short description of assay [1]: Inhibition of Influenza A virus A/chicken/shandong/S2/02(H9N2) Neuraminidase.
Assay [2] in a line: Inhibition of Influenza A virus A/duck/china/1206/2012(H5N1) Neuraminidase.
Assay [3] in a line: Inhibition of Influenza A virus A/duck/china/QJ/01(H5N1) Neuraminidase.

As a reminder, the IC50 is the concentration that inhibits the measured activity by half. A high value points to a need for much substance.

On to `CCC(CC)O[C@@H]1C=C(C(=O)O)C[C@H](NCc2ccccc2)[C@H]1NC(C)=O`, for which the results for the IC50 in assay [1], in assay [2] and in assay [3] were 0.42 µM, 0.019 µM and 0.08 µM, respectively.

With `CCCCN[C@H]1CC(C(=O)O)=C[C@@H](OC(CC)CC)[C@@H]1NC(C)=O`, the IC50 in assay [1] worked out at 0.63 µM; in assay [2], 0.056 µM; in assay [3] it was 0.076 µM.

As to `CCC(CC)O[C@@H]1C=C(C(=O)O)C[C@H](NC/C=C/c2ccccc2)[C@H]1NC(C)=O`, the IC50 in assay [1] worked out at 3.23 µM; in assay [2], 0.048 µM; in assay [3] it was 0.106 µM.

As for `CCC(CC)O[C@@H]1C=C(C(=O)O)C[C@H](N(CCCc2ccccc2)C(=N)N)[C@H]1NC(C)=O`, the values for the IC50 in assay [1], in assay [2] and in assay [3] were more than 5 µM, 1.78 µM and more than 3 µM, respectively.

As to `CCC(CC)CN[C@H]1CC(C(=O)O)=C[C@@H](OC(CC)CC)[C@@H]1NC(C)=O`, the IC50 was 0.07 µM in assay [1], 0.043 µM in assay [2] and 0.54 µM in assay [3].

`C=CCOc1ccccc1CN[C@H]1CC(C(=O)O)=C[C@@H](OC(CC)CC)[C@@H]1NC(C)=O`: the figures for the IC50 in assay [1], in assay [2] and in assay [3] were 1.91 µM, more than 0.2 µM and more than 0.2 µM, respectively.

In the case of `CCC(CC)O[C@@H]1C=C(C(=O)O)C[C@H](NCc2ccccc2F)[C@H]1NC(C)=O`, the IC50 in assay [1] is 0.65 µM; in assay [2] it was 0.09 µM; in assay [3] it was 0.108 µM.

In the case of `CCC(CC)O[C@@H]1C=C(C(=O)O)C[C@H](NCc2ccccc2O)[C@H]1NC(C)=O`, the IC50 was found to be 5 µM in assay [1], 0.063 µM in assay [2] and 0.194 µM in assay [3].

Consider `CCC(CC)O[C@@H]1C=C(C(=O)O)C[C@H](N(CC(C)C)C(=N)N)[C@H]1NC(C)=O`, for which the IC50 in assay [1] was more than 5 µM; in assay [2], 0.39 µM; in assay [3] it was 0.45 µM.

In the case of `CCC(CC)O[C@@H]1C=C(C(=O)O)C[C@H](NCc2ccccc2OCc2ccco2)[C@H]1NC(C)=O`, the figures for the IC50 in assay [1], in assay [2] and in assay [3] were 0.72 µM, more than 0.2 µM and more than 0.2 µM, respectively.

With `CCCCCN(C(=N)N)[C@H]1CC(C(=O)O)=C[C@@H](OC(CC)CC)[C@@H]1NC(C)=O`, the IC50 in assay [1] is more than 5 µM; in assay [2], 3.62 µM; in assay [3], more than 3 µM.

As to `CCC(CC)O[C@@H]1C=C(C(=O)O)C[C@H](NCc2ccccc2OC)[C@H]1NC(C)=O`, the IC50 in assay [1] is 0.25 µM; in assay [2], 0.117 µM; in assay [3] it was more than 2 µM.

With `CCC(CC)O[C@@H]1C=C(C(=O)O)C[C@H](N(Cc2ccc(-c3ccccc3)cc2)C(=N)N)[C@H]1NC(C)=O`, the results for the 50% inhibitory concentration (IC50) in assay [1], in assay [2] and in assay [3] were 0.37 µM, 0.27 µM and 0.43 µM, respectively.

`CCC(CC)O[C@@H]1C=C(C(=O)O)C[C@H](NCc2ccc(-c3ccccc3)cc2Cl)[C@H]1NC(C)=O`: the IC50 in assay [1] was 0.34 µM; in assay [2], 0.027 µM; in assay [3] it was 0.044 µM.

For the molecule `CCC(CC)O[C@@H]1C=C(C(=O)O)C[C@H](NCc2cccs2)[C@H]1NC(C)=O`, the IC50 in assay [1] was found to be 0.099 µM; in assay [2], 0.053 µM; in assay [3], 0.054 µM.

`CCC(CC)O[C@@H]1C=C(C(=O)O)C[C@H](N(Cc2cccs2)C(=N)N)[C@H]1NC(C)=O`: the IC50 in assay [1] was found to be 0.35 µM; in assay [2], 0.088 µM; in assay [3], 0.19 µM.

On to `CCC(CC)O[C@@H]1C=C(C(=O)NO)C[C@H](NC(=N)N)[C@H]1NC(C)=O`, for which the 50% inhibitory concentration (IC50) is 0.16 µM in assay [1], more than 0.2 µM in assay [2] and more than 0.2 µM in assay [3].

Turning to `CCC(CC)O[C@@H]1C=C(C(=O)NO)C[C@H](N)[C@H]1NC(C)=O`, the figures for the IC50 in assay [1], in assay [2] and in assay [3] were 0.12 µM, more than 0.2 µM and 0.18 µM, respectively.

For `CCC(CC)O[C@@H]1C=C(C(=O)O)C[C@H](N(Cc2ccccc2OC)C(=N)N)[C@H]1NC(C)=O`, the IC50 in assay [1] stood at 0.36 µM; in assay [2] it was 0.25 µM.

On to `CCCN(C(=N)N)[C@H]1CC(C(=O)O)=C[C@@H](OC(CC)CC)[C@@H]1NC(C)=O`, for which the IC50 in assay [1] was more than 5 µM; in assay [2], 1.14 µM; in assay [3], 3.9 µM.

Take `CCCCN(C(=N)N)[C@H]1CC(C(=O)O)=C[C@@H](OC(CC)CC)[C@@H]1NC(C)=O`: the IC50 in assay [1] was more than 1.23 µM; in assay [2], more than 3 µM; in assay [3], more than 3 µM.

Take `CCC(CC)O[C@@H]1C=C(C(=O)O)C[C@H](NCc2ccc(-c3ccccc3)cc2)[C@H]1NC(C)=O`: the IC50 came to 0.58 µM in assay [1], 0.0038 µM in assay [2] and 0.0067 µM in assay [3].

Take `CCC(CC)O[C@@H]1C=C(C(=O)O)C[C@H](NCc2ccccc2Br)[C@H]1NC(C)=O`: the concentration for half-maximal inhibition (IC50) in assay [1] came out at 0.042 µM; in assay [2] it was 0.038 µM; in assay [3], 0.056 µM.

As to `CCC(CC)O[C@@H]1C=C(C(=O)O)C[C@H](NCCCN)[C@H]1NC(C)=O`, the 50% inhibitory concentration (IC50) is 1.05 µM in assay [1], more than 0.2 µM in assay [2] and more than 0.2 µM in assay [3].

On to `CCC(CC)O[C@@H]1C=C(C(=O)O)C[C@H](NCC(C)C)[C@H]1NC(C)=O`, for which the results for the IC50 in assay [1], in assay [2] and in assay [3] were 1.75 µM, 0.083 µM and 0.099 µM, respectively.

Turning to `CCC(CC)CN(C(=N)N)[C@H]1CC(C(=O)O)=C[C@@H](OC(CC)CC)[C@@H]1NC(C)=O`, the IC50 in assay [1] was more than 5 µM; in assay [2] it was more than 3 µM; in assay [3], more than 3 µM.

For the molecule `CCC(CC)O[C@@H]1C=C(C(=O)O)C[C@H](N(Cc2ccccc2)C(=N)N)[C@H]1NC(C)=O`, the results for the IC50 in assay [2] and in assay [3] were 3.02 µM and more than 3 µM, respectively.

On to `CCC(CC)O[C@@H]1C=C(C(=O)O)C[C@H](NC(=N)N)[C@H]1NC(C)=O` [Guanidino-Oseltamivir Carboxylicacid], for which the IC50 in assay [1] turned out to be 0.011 µM; in assay [2], 0.0023 µM; in assay [3], 0.0026 µM.

`CCC(CC)O[C@@H]1C=C(C(=O)O)C[C@H](N(CCC(C)C)C(=N)N)[C@H]1NC(C)=O`: the IC50 is 4.88 µM in assay [1], 2.54 µM in assay [2] and more than 3 µM in assay [3].

Turning to `CCC(CC)O[C@@H]1C=C(C(=O)O)C[C@H](NCc2ccc(-c3cccs3)cc2)[C@H]1NC(C)=O`, the IC50 was determined as 0.21 µM in assay [1], 0.0043 µM in assay [2] and 0.014 µM in assay [3].

With `CCC(CC)O[C@@H]1C=C(C(=O)O)C[C@H](NCc2ccc(-c3ccccc3)cc2-c2ccccc2)[C@H]1NC(C)=O`, the IC50 in assay [1] turned out to be 0.038 µM; in assay [2], 0.039 µM; in assay [3] it was 0.058 µM.

In the case of `CCC(CC)O[C@@H]1C=C(C(=O)O)C[C@H](NCCCc2ccccc2)[C@H]1NC(C)=O`, the values for the IC50 in assay [1], in assay [2] and in assay [3] were more than 5 µM, 0.081 µM and 0.19 µM, respectively.

For `CCC(CC)O[C@@H]1C=C(C(=O)O)C[C@H](N(Cc2ccc(C(C)C)cc2)C(=N)N)[C@H]1NC(C)=O`, the IC50 in assay [1] turned out to be 2.16 µM; in assay [2], 1.56 µM; in assay [3], 3.2 µM.

Consider `CCC(CC)O[C@@H]1C=C(C(=O)O)C[C@H](NCc2ccccc2Cl)[C@H]1NC(C)=O`, for which the IC50 in assay [1] was more than 0.43 µM; in assay [2] it was 0.014 µM; in assay [3] it was 0.029 µM.

For the origin of these results see BindingDB's records for doi:10.1021/jm500892k (Shandong University, 2014).
